# Results taken from patent US20240374626A1, “METHODS OF ENHANCING MILK PRODUCTION IN LACTATING MAMMALIAN SUBJECTS” (priority 2023, published 2024).
# Experiments:
# [1] = test system: HC11 cells; test: Visualization of FACS-purified HC11 subpopulations sorted on DNA content (nuclei number); assay type: cell-based, mouse; settings: HC11, doxorubicin 50 nM, FACS-purified population
# Procedure: (§1) […] Drugs were maintained through the differentiation process and added with every change of media.
# Mammary gland CK8+ epithelial cells or HC11 were sorted based on DNA content using BD FACS Aria II Cell Sorter. After sorting, cells were stained in suspension using Phalloidin-iFluor 488 Reagent (Abcam, ab176753) for 30 min at room temperature in darkness. Cells were spined down onto microscopy slides (Fisher, 12-550-15) using Cytospin 2 (Shandon, 599X52) at 500 rpm for 3 min. Cells were mounted using fluoromount-G (Southern Biotech, 0100-01) and visualized using Zeiss Axio Imager Microscope.
# [2] = test system: HC11 cells; test: Milk production markers in differentiated HC11 (milk domes, Csn2 RT-qPCR, CSN2 WB, PLIN2 ICC); assay type: cell-based, mouse; settings: HC11, doxorubicin 50 nM, differentiated
# Procedure: The HC11 cell line was obtained from American Type Culture Collection (ATCC) and routinely checked for mycoplasma (Mycoplasma PCR kit, ABM, G238). Undifferentiated HC11 cells were cultured in growing medium (RPMI-1640; Thermo Fisher Scientific, 72400047), supplemented with 10% FBS, 5 μg/ml insulin (Millipore-Sigma, 16634), 10 ng/ml epidermal growth factor (EGF; Preprotech, AF-100-15) and 1× AntiAnti (Thermo Fisher Scientific, 15240112) at 37° C. with 5% CO2. Cells were grown to confluency and maintained in growing medium for 2 days, until they became competent. Competent HC11 cells were primed for differentiation by culturing them in priming medium [RPMI-1640 supplemented with 5 μg/ml insulin, 1 μM dexamethasone (Millipore-Sigma, D4902-1 G) and 1× Anti-Anti] for 24 h at 37° C. with 5% CO2. To induce differentiation, primed HC11 cells were cultured in DIP Medium [RPMI-1640, supplemented with 10% FBS, 5 μg/ml insulin, 1 μM dexamethasone, 1× anti-anti and 3 μg/ml Prolactin (NHPP, oPRL-21)] at 37° C. with 5% CO2.
# as §1
# Whole cell lysates were prepared using 1×NP40 lysis buffer (Thermo Fisher Scientific, FNN0021) supplemented with Pierce Protease and Phosphatase inhibitors (Thermo Fisher Scientific, A32959). Cells were washed with ice-cold PBS (GIBCO, 14190136) and lysed direct in buffer and kept at 4° C. rocking at 70 rpm for 30 min. Lysed cells were collected and centrifuged at 12,000 rpm at 4° C. for 15 min. Protein concentration was quantified using Qubit 4 fluorometer (Thermo Fisher, Q33238). Samples were resolved by SDS page and transferred to polyvinylidene difluoride (PVDF, Millipore-Sigma, IPVH00010) for 60 min at 250 mA. Immunoblots were blocked for 1 h at room temperature using either 5% non-fat milk or 5% BSA TBST. Primary antibodies [anti-GAPDH (SCBT, sc-365062), anti-Actin (SCBT, sc-47778), anti-Cyclin B1 (SCBT, sc-245), anti-Cyclin E1 (Millipore-Sigma, SAB4503516) and anti-CSN2 (ABclonal, A12749)] were incubated overnight at 4° C. in a rocker. HRP-conjugated secondary antibodies ([…]) were used for 1 h at room temperature. Immunoblots were developed using Clarity ECL (Bio-Rad), detected using a Bio-Rad ChemiDoc MP Image, and quantified using ImageJ.
# HC11 cells were fixed using ice-cold MeOH for 10 min. After washing with 1×PBS, cells were incubated for 1 h at room temperature with primary antibodies [anti-γH2AX (SCBT, sc-517348), anti-pATR (Genetex, GTX128145), anti-PLIN2 (generously provided by Jim McManaman)] in a humid incubation chamber. After incubation, cells were washed three times using 1×PBS and incubated for 1 h at room temperature in darkness using corresponding Alexa Fluor AffiniPure secondary antibodies (Jackson ImmunoResearch) and Phalloidin-iFluor 488 Reagent (Abcam, ab176753) when indicated. Cells were washed three times using 1×PBS and incubated with Hoechst 33342 (AnaSpec, AS-83218) for 10 min. Cells were mounted using fluoromount-G (Southern Biotech, 0100-01) and visualized using Zeiss Axio Imager Microscope. Integrated density of PLIN2, nuclear γH2AX and nuclear pATR was quantify using ImageJ.
# For RNA isolation from FACS purified populations, mammary gland cell suspensions were blocked using Mouse BD Fc Block™ (BD Biosciences) for 10 min. Cells were subsequently resuspended on 1×PBS at a density of 10^7 cells/ml and stained with the following antibodies for 30 min on ice: anti-CD24 PE (Stem Cell Technologies, 60099PE.1), anti-CD29 PE-Cy7 (BioLegend, 102222), anti-CD45-APC (BioLegend,105826), Ter119-APC (BD Biosciences, 561033), CD31-ACP (BD Biosciences, 551262). Propidium iodide at a final concentration of 0.5 μg/ml was used for the discrimination of dead cells. Stromal, basal and luminal mammary populations were sorted using a BD FACS Aria II Cell Sorter. […]
structure (smiles),measurement,setting,value
COc1cccc2c1C(=O)c1c(O)c3c(c(O)c1C2=O)C[C@@](O)(C(=O)CO)C[C@@H]3O[C@H]1C[C@H](N)[C@H](O)[C@H](C)O1 [doxorubicin],nuclei number of polyploid cells generated,[1],generated both mono- and binucleated polyploid cells
same,"CSN2, WB",[2],increase
